The NIST ThermoML archive (doi:10.1021/je060093l)

Tests used:
[1] = refractive index (Na D-line) (dimensionless); conditions: 298.15 K; 101.33 kPa; Liquid; Standard Abbe refractometry
[2] = Liquid, Ebulliometric method (Recirculating still)

Cc1ccccc1C [1,2-dimethylbenzene]
Conditions | refractive index
[1] | 1.5026

Cc1ccccc1 [toluene]
[2]
Conditions | vapor or sublimation pressure [kPa]
352.64 K | 38.32
356.84 K | 44.23
361.31 K | 51.31
367.88 K | 63.37
372.12 K | 72.27
375.63 K | 80.42
379.44 K | 90.03
379.45 K | 90.03

Conditions | refractive index
[1] | 1.4939

CCCS [1-propanethiol]
[2]
Conditions | vapor or sublimation pressure [kPa]
310.52 K | 34.6
315.47 K | 41.96
320.68 K | 51.03
325.73 K | 61.23
330.38 K | 72.02
334.62 K | 83.15
337.03 K | 90.03
340.63 K | 101.19

Conditions | refractive index
[1] | 1.4353

CCSCC [3-thiapentane]
[2]
Conditions | vapor or sublimation pressure [kPa]
333.82 K | 35.84
338.63 K | 42.73
344.7 K | 52.89
350.02 K | 63.3
353.56 K | 71.09
358.41 K | 83.03
361.02 K | 90.03
361.03 K | 90.03
365.05 K | 101.92

Conditions | refractive index
[1] | 1.44

c1ccsc1 [thiophene]
[2]
Conditions | vapor or sublimation pressure [kPa]
328.01 K | 37.5
331.52 K | 42.75
337.52 K | 53.02
341.13 K | 60.12
346.44 K | 71.92
350.46 K | 82.01
353.38 K | 90.03
356.73 K | 99.99

Conditions | refractive index
[1] | 1.5255
